Measurements reported in patent US7615651B2, “Diaryl, dipyridinyl and aryl-pyridinyl derivatives and uses thereof” (Pfizer Inc., priority 2006, dated 2009).
pKi: −log10 of the molar value. Counter-ions that a name gives are not always drawn. Like-named read-outs stand apart in the source and are kept apart here.

Assays:
Assay type in all cases: biochemical
opioid receptor delta = biological target: T1, opioid receptor delta (Homo sapiens, UniProt P41143); experiment: GTPγ[35S] binding assay, antagonism of BW-373U86
T1 construct: expressed in transfected cells
T1 sequence (P41143 whole entry): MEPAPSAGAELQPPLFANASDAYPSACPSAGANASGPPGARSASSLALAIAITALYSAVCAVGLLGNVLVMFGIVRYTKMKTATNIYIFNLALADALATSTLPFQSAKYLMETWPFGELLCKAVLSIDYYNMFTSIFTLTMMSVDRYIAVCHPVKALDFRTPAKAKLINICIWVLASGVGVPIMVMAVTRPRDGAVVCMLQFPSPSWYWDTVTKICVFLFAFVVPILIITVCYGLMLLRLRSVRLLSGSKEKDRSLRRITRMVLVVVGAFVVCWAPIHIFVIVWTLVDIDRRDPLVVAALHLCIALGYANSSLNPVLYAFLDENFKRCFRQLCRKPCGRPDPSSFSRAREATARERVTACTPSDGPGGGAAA
Outline: (§1)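 Membranes with […] GTPγ[35S] in Tris pH 7.4 buffer with MgCl2, NaCl, 30 μM GDP; antagonist (10^−10–10^−5 M) preincubated 10 min at 30 °C, then challenged with BW-373U86 1 nM (delta), dynorphin-A 10 nM (kappa) or endorphin 1 μM (mu) for 1 h at 30 °C. Scintillation read-out; Ki derived.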

opioid receptor kappa = biological target: T2, opioid receptor kappa (Homo sapiens, UniProt P41145); experiment: GTPγ[35S] binding assay, antagonism of dynorphin-A
T2 construct: expressed in transfected cells
T2 sequence (P41145 whole entry): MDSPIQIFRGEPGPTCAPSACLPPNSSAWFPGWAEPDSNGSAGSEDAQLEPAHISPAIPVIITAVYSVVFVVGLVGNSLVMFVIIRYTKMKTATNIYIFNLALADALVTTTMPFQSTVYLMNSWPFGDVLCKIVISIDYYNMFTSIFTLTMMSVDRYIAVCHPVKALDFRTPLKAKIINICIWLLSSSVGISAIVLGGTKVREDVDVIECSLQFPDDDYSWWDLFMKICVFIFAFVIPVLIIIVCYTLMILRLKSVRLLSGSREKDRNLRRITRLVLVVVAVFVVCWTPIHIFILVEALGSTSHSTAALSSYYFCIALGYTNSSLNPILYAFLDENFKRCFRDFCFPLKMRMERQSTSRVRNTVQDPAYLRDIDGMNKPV
Outline: as §1

opioid receptor mu = biological target: T3, opioid receptor mu (Homo sapiens, UniProt P35372); experiment: GTPγ[35S] binding assay, antagonism of endorphin
T3 construct: expressed in transfected cells
T3 sequence (P35372 whole entry): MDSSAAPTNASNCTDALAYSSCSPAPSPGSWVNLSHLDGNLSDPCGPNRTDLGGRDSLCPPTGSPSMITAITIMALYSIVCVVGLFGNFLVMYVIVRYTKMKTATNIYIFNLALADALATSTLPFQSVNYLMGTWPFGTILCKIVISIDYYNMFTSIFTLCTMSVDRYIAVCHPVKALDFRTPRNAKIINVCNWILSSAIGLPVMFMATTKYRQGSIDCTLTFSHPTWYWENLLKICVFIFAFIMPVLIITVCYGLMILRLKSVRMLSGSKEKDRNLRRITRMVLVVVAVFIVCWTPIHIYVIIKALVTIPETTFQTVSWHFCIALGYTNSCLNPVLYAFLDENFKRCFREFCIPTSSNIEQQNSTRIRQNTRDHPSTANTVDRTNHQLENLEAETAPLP
Outline: as §1

[1] = read-out: Delta functional Ki (GTPγ[35S] binding)
[2] = read-out: Kappa functional Ki (GTPγ[35S] binding)
[3] = read-out: Mu functional Ki (GTPγ[35S] binding)
[4] = average Ki, antagonism of BW-373U86 (1 nM) at delta opioid receptor membranes, read-out: Delta functional Ki (GTPγ[35S] binding)
[5] = average Ki, antagonism of dynorphin-A (10 nM) at kappa opioid receptor membranes, read-out: Kappa functional Ki (GTPγ[35S] binding)
[6] = average Ki, antagonism of endorphin (1 μM) at mu opioid receptor membranes, read-out: Mu functional Ki (GTPγ[35S] binding)
[7] = average Ki, antagonism of BW-373U86 (1 nM) at delta opioid receptor, read-out: Delta functional Ki (GTPγ[35S] binding)
[8] = average Ki, antagonism of dynorphin-A (10 nM) at kappa opioid receptor, read-out: Kappa functional Ki (GTPγ[35S] binding)
[9] = average Ki, antagonism of endorphin (1 μM) at mu opioid receptor, read-out: Mu functional Ki (GTPγ[35S] binding)

Row | Compound | pKi (opioid receptor delta; [1]) | pKi (opioid receptor kappa; [2]) | pKi (opioid receptor mu; [3]) | also measured
1 | Cc1cc(CNC2Cc3ccccc3C2)ccc1-c1ccc(C(N)=O)cc1C [4B-73] | 9.87 | 9.50 | 10.53 | 
2 | Cc1cc(C(N)=O)ccc1-c1cc(F)c(CNCCC(C)C)cc1F [4B-74] | 8.32 | 8.35 | 8.36 | 
3 | Cc1cc(C(N)=O)ccc1-c1cc(F)c(CNC2Cc3ccccc3C2)cc1F [4B-75] |  |  |  | pKi (opioid receptor delta; [4]): 9.51; pKi (opioid receptor kappa; [5]): 8.90; pKi (opioid receptor mu; [6]): 10.16
4 | CCc1cc(C(N)=O)ccc1-c1c(C)cc(CNCCC2CCOCC2)cc1C [4B-76] | 9.30 | 8.09 | 8.99 | 
5 | CCc1cc(C(N)=O)ccc1-c1ccc(CNC2Cc3ccccc3C2)cc1C [4B-77] | 9.57 | 9.02 | 9.94 | 
6 | NC(=O)c1ccc(-c2ccc(CNC[C@H]3CCCO3)cc2Cl)c(Cl)c1 [4B-78] | 7.73 | 8.07 | 7.45 | 
7 | CC1(C)OCC(CNCc2ccc(-c3ccc(C(N)=O)cc3Cl)c(Cl)c2)O1 (stereo not drawn) [4B-79] |  |  |  | pKi (opioid receptor delta; [4]): 8.85; pKi (opioid receptor kappa; [5]): 6.89; pKi (opioid receptor mu; [6]): 6.64
8 | CC(C)CCNCc1cc(F)c(-c2ccc(C(N)=O)cc2Cl)cc1F [4B-80] | 7.93 | 8.02 | 7.86 | 
9 | CCc1cc(C(N)=O)ccc1-c1cc(F)c(CNCCC(C)C)c(F)c1 [4B-81] | 7.82 | 7.77 | 7.87 | 
10 | Cc1cc(CNC2Cc3ccccc3C2)cc(Cl)c1-c1ccc(C(N)=O)cc1Cl [4B-82] | 9.82 | 8.75 | 10.54 | 
11 | Cc1cc(C(N)=O)ccc1-c1c(C)cc(CNCCC(C)C)cc1Cl [4B-83] | 8.78 | 8.43 | 9.37 | 
12 | Cc1cc(C(N)=O)ccc1-c1c(C)cc(CNC2Cc3ccccc3C2)cc1Cl [4B-84] | 10.11 | 9.23 | 10.84 | 
13 | Cc1cc(C(N)=O)ccc1-c1ccc(CNCCC(C)C)c(OCc2ccccc2)c1 [4B-85] | 9.23 | 8.26 | 8.61 | 
14 | Cc1cc(C(N)=O)ccc1-c1ccc(CNC2Cc3ccccc3C2)c(OCc2ccccc2)c1 [4B-86] | 10.36 | 8.76 | 10.05 | 
15 | Cc1cc(C(N)=O)ccc1-c1ccc(CNC2Cc3ccccc3C2)c(O)c1 [4B-88] | 9.23 | 9.11 | 9.87 | 
16 | COc1cc(-c2ccc(C(N)=O)cc2C)ccc1CNC1Cc2ccccc2C1 [4B-89] | 10.05 | 9.44 | 10.57 | 
17 | Cc1cc(-c2ccc(C(N)=O)cc2C)ccc1CNCCC(C)C [4B-90] | 8.78 | 8.78 | 8.93 | 
18 | Cc1cc(C(N)=O)ccc1-c1c(C)cc(CNCC2CCCO2)cc1Cl (stereo not drawn) [4B-91] |  |  |  | pKi (opioid receptor delta; [4]): 7.61; pKi (opioid receptor kappa; [5]): 8.05; pKi (opioid receptor mu; [6]): 8.65
19 | CC(C)CCNCc1ccc(-c2ncc(C(N)=O)cc2Cl)cc1 [4C-01] |  |  |  | pKi (opioid receptor delta; [4]): 7.47; pKi (opioid receptor kappa; [5]): 7.81; pKi (opioid receptor mu; [6]): 7.55
20 | NC(=O)c1cnc(-c2ccc(CNC3Cc4ccccc4C3)cc2)c(Cl)c1 [4C-02] | 8.71 | 8.71 | 9.31 | 
21 | Cc1cc(C(N)=O)cnc1-c1ccc(CNC2Cc3ccccc3C2)cc1 [4C-03] | 9.09 | 9.01 | 9.70 | 
22 | Cc1cc(C(N)=O)cnc1-c1ccc(CNCCC(C)C)cc1 [4C-04] |  |  |  | pKi (opioid receptor delta; [4]): 7.66; pKi (opioid receptor kappa; [5]): 8.14; pKi (opioid receptor mu; [6]): 7.98

Row | Compound | pKi (opioid receptor delta; [1]) | pKi (opioid receptor kappa; [2]) | pKi (opioid receptor mu; [3]) | also measured
23 | CCOCCNCc1ccc(-c2cccc(C(N)=O)c2)c(Cl)c1 [6A-01] |  |  |  | pKi (opioid receptor delta; [4]): 7.59; pKi (opioid receptor kappa; [5]): 7.38; pKi (opioid receptor mu; [6]): 7.89
24 | NC(=O)c1cccc(-c2ccc(CNCCc3cscn3)cc2Cl)c1 [6A-02] | 7.63 | 6.33 | 7.91 | 
25 | NC(=O)c1cccc(-c2ccc(CN[C@H]3c4ccccc4C[C@H]3O)cc2Cl)c1 [6A-03] | 7.44 | 8.03 | 8.53 | 
26 | Cn1c(=O)n(C)c2cc(CNCc3ccc(-c4cccc(C(N)=O)c4)c(Cl)c3)ccc21 [6A-04] |  |  |  | pKi (opioid receptor delta; [4]): 7.49; pKi (opioid receptor kappa; [5]): 6.09; pKi (opioid receptor mu; [6]): 7.82
27 | Cc1cc(C)n(CC(C)NCc2ccc(-c3cccc(C(N)=O)c3)c(Cl)c2)n1 (stereo not drawn) [6A-05] | 7.75 | 7.57 | 8.28 | 
28 | COCCNCc1ccc(-c2cccc(C(N)=O)c2)c(Cl)c1 [6A-07] |  |  |  | pKi (opioid receptor delta; [4]): 10.19; pKi (opioid receptor kappa; [5]): 7.24; pKi (opioid receptor mu; [6]): 7.11
29 | Cc1ncsc1CCNCc1ccc(-c2cccc(C(N)=O)c2)c(Cl)c1 [6A-08] | 8.31 | 7.49 | 8.06 | 
30 | CC(C)CCNCc1ccc(-c2cccc(-c3ncn[nH]3)c2)cc1 [7A-01] | 7.58 | 8.07 | 8.08 | 
31 | CC(C)CCNCc1ccc(-c2cc(-c3ncn[nH]3)ccc2F)cc1 [7A-02] |  |  |  | pKi (opioid receptor delta; [4]): 8.28; pKi (opioid receptor kappa; [5]): 8.75; pKi (opioid receptor mu; [6]): 8.80
32 | CC(C)CCNCc1ccc(-c2cc(-c3ncn[nH]3)ccc2F)c(F)c1 [7A-03] | 7.90 | 8.57 | 8.39 | 
33 | CC(C)CCNCc1ccc(-c2ccc(-c3ncn[nH]3)cc2)cc1 [7B-01] | 6.51 | 7.46 | 7.99 | 
34 | Cc1cc(CNCCC(C)C)ccc1-c1ccc(-c2ncn[nH]2)cc1 [7B-02] | 8.43 | 8.36 | 9.14 | 
35 | Cc1cc(-c2ncn[nH]2)ccc1-c1ccc(CNCCC(C)C)cc1F [7B-03] | 7.55 | 8.03 | 8.77 | 
36 | CC(C)CCNCc1ccc(-c2ccc(-c3ncn[nH]3)cc2)c(F)c1 [7B-04] | 8.09 | 7.87 | 8.60 | 
37 | CC(C)CCNCc1ccc(-c2ccc(-c3ncn[nH]3)cc2C(F)(F)F)cc1 [7B-05] | 7.53 | 7.32 | 7.85 | 
38 | Cc1cc(CNCCC(C)C)ccc1-c1cccc(NS(C)(=O)=O)c1 [8A-02] |  |  |  | pKi (opioid receptor delta; [7]): 7.98; pKi (opioid receptor kappa; [8]): 7.82; pKi (opioid receptor mu; [9]): 8.94
39 | CC(C)CCNCc1ccc(-c2cccc(NS(C)(=O)=O)c2)c(C#N)c1 [8A-03] |  |  |  | pKi (opioid receptor delta; [7]): 7.74; pKi (opioid receptor kappa; [8]): 7.86; pKi (opioid receptor mu; [9]): 8.94
40 | CS(=O)(=O)Nc1ccc(-c2ccc(CNC3Cc4ccccc4C3)c(F)c2)cc1 [8B-02] | 7.40 | 6.24 | 8.03 | 
41 | Cc1cc(C(N)=O)ccc1-c1ccc(CNCCC(C)C)cc1 [E4-02, (4′-carbamoyl-2′-methyl-biphenyl-4-ylmethyl)-(3-methyl-butyl)-ammonium chloride] |  |  |  | pKi (opioid receptor delta; read-out: Delta functional (GTPγ[35S] binding Ki)): 8.10; pKi (opioid receptor kappa; read-out: Kappa functional (GTPγ[35S] binding Ki)): 8.67; pKi (opioid receptor mu; read-out: Mu functional (GTPγ[35S] binding Ki)): 8.21
42 | Cc1cc(-c2nnc[nH]2)ccc1-c1ccc(C[NH2+]CCC(C)C)cc1 [E7-01, [2′-methyl-4′-(4H-[1,2,4]-triazol-3-yl)-biphenyl-4-ylmethyl]-(3-methyl-butyl)-amine hydrochloride] | 7.96 | 7.89 | 8.41 | 
43 | Cc1cc(CNCCC(C)C)ccc1-c1ccc(NS(C)(=O)=O)cc1 [E8-01, (4′-Methenesulfonylamino-2-methyl-biphenyl-4-ylmethyl)-(3-methyl-butyl)-ammonium chloride] | 7.49 | 6.55 | 7.38 | 
